Source: ChEMBL document CHEMBL4304779, “Treatment of Cancers by Inhibition of Isoprenylcysteine Carboxyl Methyltransferase” (ACS Med Chem Lett, 2019)

Molecular target: Protein-S-isoprenylcysteine O-methyltransferase (Homo sapiens, UniProt O60725)
Assay: Inhibition of recombinant human ICMT expressed in baculovirus infected Sf9 insect cells using SAM as substrate preincubated for 30 mins followed by substrate addition and measured after 90 mins by MTase-Glo assay

Protein-S-isoprenylcysteine O-methyltransferase, sequence (O60725 whole entry): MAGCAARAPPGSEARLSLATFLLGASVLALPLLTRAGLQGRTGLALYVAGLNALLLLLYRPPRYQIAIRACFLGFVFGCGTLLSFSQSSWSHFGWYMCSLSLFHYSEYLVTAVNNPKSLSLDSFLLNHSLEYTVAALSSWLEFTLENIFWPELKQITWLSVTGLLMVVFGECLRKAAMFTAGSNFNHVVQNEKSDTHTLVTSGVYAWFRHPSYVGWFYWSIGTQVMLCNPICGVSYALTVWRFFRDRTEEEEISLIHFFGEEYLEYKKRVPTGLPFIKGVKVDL

For `COc1cc(C#N)ccc1O[C@@H](C)COc1cccc(-n2ccnc2C)c1`, the IC50 was 0.08 nM.
`Cc1cc(C#N)ccc1O[C@@H](C)COc1cccc(-c2ccnn2C)c1` was tested, and the IC50 was 1.6 nM.
